Results taken from patent publication US9480259B2, “Pyrazolopyrans having herbicidal and pharmaceutical properties” (BASF SE, priority 2012, dated 2016).

Target: Arabidopsis thaliana SHMT
Assay: SHMT activity assay (ED50 SHMT), coupled with N5,N10-CH2-THF dehydrogenase, NADH at 340 nm
Type: biochemical
Settings: values given as upper bounds
Procedure, shortened: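 His-tagged SHMT purified on Ni-NTA. NADH formation followed at 340 nm for 30 min; ED50 from inhibition of initial velocity.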

[1] = Table 2, Arabidopsis thaliana SHMT enzyme assay

Structure (SMILES) | EC50 (Table 2) [nM] | EC50 [1] [nM]
N#CC1=C(N)Oc2[nH]nc(C3CC3)c2C1(c1cccc(C(F)(F)F)c1)C1CCC1 (stereo not drawn) [Compound 2.171.] | < 100 | 
Cc1n[nH]c2c1C(c1cccc(Cl)c1)(C1CCC1)C(C#N)=C(N)O2 (stereo not drawn) [Compound 2.172.] | < 100 | 
CCc1n[nH]c2c1C(c1cccc(Cl)c1)(C1CCC1)C(C#N)=C(N)O2 (stereo not drawn) [Compound 2.173.] | < 100 | 
N#CC1=C(N)Oc2[nH]nc(C3CC3)c2C1(c1cccc(Cl)c1)C1CCC1 (stereo not drawn) [Compound 2.174.] | < 100 | 
N#CC1=C(N)Oc2[nH]nc(C(F)F)c2C1(c1cccc(C(F)(F)F)c1)C1CCC1 (stereo not drawn) [Compound 2.175.] | < 1000 | 
COc1ccc(C2(C3CCC3)C(C#N)=C(N)Oc3[nH]nc(C)c32)cc1C(F)(F)F (stereo not drawn) [Compound 2.176.] | < 10 | 
COc1ccc(C2(C3CCC3)C(C#N)=C(N)Oc3[nH]nc(C)c32)cc1Cl (stereo not drawn) [Compound 2.178.] | < 10 | 
Cc1n[nH]c2c1C(c1cc(Cl)cc(Oc3ccccc3)c1)(C1CCC1)C(C#N)=C(N)O2 (stereo not drawn) [Compound 2.179.] | < 100 | 
Cc1n[nH]c2c1C(c1cc(Cl)cc(Cl)c1)(C1(F)CCC1)C(C#N)=C(N)O2 (stereo not drawn) [Compound 2.180.] | < 100 | 
Cc1n[nH]c2c1C(c1ccc(F)c(Cl)c1)(C1CCC1)C(C#N)=C(N)O2 (stereo not drawn) [Compound 2.182.] | < 100 | 
Cc1n[nH]c2c1C(c1ccc(OC(F)(F)F)cc1)(C1CCC1)C(C#N)=C(N)O2 (stereo not drawn) [Compound 2.183.] | < 1000 | 
Cc1n[nH]c2c1C(c1cc(Cl)cc(-c3ccccc3)c1)(C1CC1)C(C#N)=C(N)O2 (stereo not drawn) [Compound 2.184.] | < 100 | 
Cc1n[nH]c2c1C(c1ccc(OCc3ccccc3)c(Cl)c1)(C(C)C)C(C#N)=C(N)O2 (stereo not drawn) [Compound 2.185.] | < 100 | 
Cc1n[nH]c2c1C(c1ccc(OCc3ccccc3)c(Cl)c1)(C1CC1)C(C#N)=C(N)O2 (stereo not drawn) [Compound 2.186.] | < 100 | 
Cc1n[nH]c2c1C(c1cc(Cl)cc(-c3cccc(F)c3)c1)(C1CC1)C(C#N)=C(N)O2 (stereo not drawn) [Compound 2.187.] | < 100 | 
Cc1n[nH]c2c1C(c1cc(Cl)cc(Oc3ccc(F)cc3)c1)(C1CC1)C(C#N)=C(N)O2 (stereo not drawn) [Compound 2.189.] | < 100 | 
Cc1n[nH]c2c1C(c1cc(Cl)cc(Oc3cccc(F)c3)c1)(C1CC1)C(C#N)=C(N)O2 (stereo not drawn) [Compound 2.190.] | < 100 | 
Cc1n[nH]c2c1C(c1cc(C(F)(F)F)cc(C(F)(F)F)c1)(C1CCC1)C(C#N)=C(N)O2 (stereo not drawn) [Compound 2.191.] | < 100 | 
Cc1n[nH]c2c1C(c1cccc(C#N)c1)(C1CCC1)C(C#N)=C(N)O2 (stereo not drawn) [Compound 2.192.] | < 100 | 
Cc1n[nH]c2c1C(c1ccc(Cl)c(Cl)c1)(C1CCC1)C(C#N)=C(N)O2 (stereo not drawn) [Compound 2.193.] | < 10 | 
N#CC1=C(N)Oc2[nH]nc(C(F)F)c2C1(c1cccc(C#N)c1)C1CCC1 (stereo not drawn) [Compound 2.194.] | < 1000 | 
N#CC1=C(N)Oc2[nH]ncc2C1(c1cccc(C(F)(F)F)c1)C1CCC1 (stereo not drawn) [Compound 2.195.] | < 1000 | 
COCc1n[nH]c2c1C(c1cccc(C(F)(F)F)c1)(C1CCC1)C(C#N)=C(N)O2 (stereo not drawn) [Compound 2.196.] | < 1000 | 
CCCCCCc1n[nH]c2c1C(CC)(c1cccc(Cl)c1)C(C#N)=C(N)O2 (stereo not drawn) [Compound 2.197.] | < 1000 | 
Cc1n[nH]c2c1C(c1cc(Cl)cc(-c3ccsc3)c1)(C1CCC1)C(C#N)=C(N)O2 (stereo not drawn) [Compound 2.198.] | < 10 | 

Structure (SMILES) | EC50 (Table 2) [nM] | EC50 [1] [nM]
Cc1n[nH]c2c1C(c1cc(Cl)cc(Cl)c1)(C1CCCC1)C(C#N)=C(N)O2 (stereo not drawn) [Compound 2.199.] | < 1000 | 
Cc1n[nH]c2c1C(c1cc(Cl)cc(Oc3cccc(F)c3)c1)(C1CCC1)C(C#N)=C(N)O2 (stereo not drawn) [Compound 2.200.] | < 100 | 
Cc1n[nH]c2c1C(c1cc(Cl)cc(Oc3ccc(F)cc3)c1)(C1CCC1)C(C#N)=C(N)O2 (stereo not drawn) [Compound 2.201.] | < 100 | 
COc1ccc(C2(C3CCCC3)C(C#N)=C(N)Oc3[nH]nc(C)c32)cc1Cl (stereo not drawn) [Compound 2.203.] | < 1000 | 
CC(C)CC1(c2cc(Cl)cc(Cl)c2)C(C#N)=C(N)Oc2[nH]ncc21 (stereo not drawn) [Compound 2.205.] | < 10000 | 
Cc1n[nH]c2c1C(c1cc(Cl)cc(Cl)c1)(C1CCCCC1)C(C#N)=C(N)O2 (stereo not drawn) [Compound 2.206.] | < 10000 | 
Cc1n[nH]c2c1C(c1cc(Cl)cc(Br)c1)(C1CCC1)C(C#N)=C(N)O2 (stereo not drawn) [Compound 2.207.] | < 10 | 
COc1ccc(C2(C3CCC3)C(C#N)=C(N)Oc3[nH]nc(C)c32)cc1Br (stereo not drawn) [Compound 2.208.] | < 10 | 
Cc1n[nH]c2c1C(c1cc(Cl)c(Cl)c(Cl)c1)(C1CCC1)C(C#N)=C(N)O2 (stereo not drawn) [Compound 2.209.] | < 10 | 
Cc1n[nH]c2c1C(c1ccc(Cl)c(Cl)c1)(C1CCCC1)C(C#N)=C(N)O2 (stereo not drawn) [Compound 2.210.] | < 100 | 
Cc1n[nH]c2c1C(c1cccc(Cl)c1)(C1CCCC1)C(C#N)=C(N)O2 (stereo not drawn) [Compound 2.211.] | < 100 | 
Cc1n[nH]c2c1C(c1ccc(Cl)c(Cl)c1)(C1CCCCC1)C(C#N)=C(N)O2 (stereo not drawn) [Compound 2.212.] | < 10000 | 
Cc1n[nH]c2c1C(c1cccc(C(F)(F)F)c1)(C1CCCC1)C(C#N)=C(N)O2 (stereo not drawn) [Compound 2.213.] | < 10 | 
Cc1n[nH]c2c1C(c1cc(Cl)cc(Cl)c1)(C1(F)CC1)C(C#N)=C(N)O2 (stereo not drawn) [Compound 2.214.] | < 10 | 
COc1ccc(C2(C3CCCC3)C(C#N)=C(N)Oc3[nH]nc(C)c32)cc1C(F)(F)F (stereo not drawn) [Compound 2.215] |  | < 10
Cc1n[nH]c2c1C(c1cc(Cl)cc(-c3ccoc3)c1)(C1CCC1)C(C#N)=C(N)O2 (stereo not drawn) [Compound 2.220] |  | < 10
Cc1n[nH]c2c1C(c1cc(Cl)cc(C(F)(F)F)c1)(C1CCC1)C(C#N)=C(N)O2 (stereo not drawn) [Compound 2.221] |  | < 10
COc1ccc(C2(C(C)C)C(C#N)=C(N)Oc3[nH]nc(C)c32)cc1Br (stereo not drawn) [Compound 2.222] |  | < 10
Cc1n[nH]c2c1C(c1cc(Cl)cc(-c3cccc(F)c3)c1)(C1CCC1)C(C#N)=C(N)O2 (stereo not drawn) [Compound 2.223] |  | < 10
Cc1n[nH]c2c1C(c1cc(Cl)cc(-c3ccc(F)cc3)c1)(C1CCC1)C(C#N)=C(N)O2 (stereo not drawn) [Compound 2.224] |  | < 10
Cc1n[nH]c2c1C(c1cc(Cl)cc(-c3ccc(Cl)cc3)c1)(C1CCC1)C(C#N)=C(N)O2 (stereo not drawn) [Compound 2.225] |  | < 10
Cc1n[nH]c2c1C(c1cc(Cl)cc(-c3ccc(O)cc3)c1)(C1CCC1)C(C#N)=C(N)O2 (stereo not drawn) [Compound 2.226] |  | < 10
Cc1n[nH]c2c1C(c1cc(Cl)cc(-c3cccc(Cl)c3)c1)(C1CCC1)C(C#N)=C(N)O2 (stereo not drawn) [Compound 2.227] |  | < 10
Cc1n[nH]c2c1C(c1ccc(F)c(Cl)c1)(C1CCCC1)C(C#N)=C(N)O2 (stereo not drawn) [Compound 2.228] |  | < 100
Cc1n[nH]c2c1C(c1cccc(C(F)(F)F)c1)(C1CCCCC1)C(C#N)=C(N)O2 (stereo not drawn) [Compound 2.230] |  | < 10000

Structure (SMILES) | EC50 (Table 2) [nM] | EC50 [1] [nM]
N#CC1=C(N)Oc2[nH]nc(O)c2C1(c1cc(F)cc(Cl)c1)C1CCC1 (stereo not drawn) [Compound 2.231] |  | < 10000
Cc1n[nH]c2c1C(c1cc(Br)cc(Br)c1)(C1CCC1)C(C#N)=C(N)O2 (stereo not drawn) [Compound 2.232] |  | < 10
Cc1n[nH]c2c1C(c1cc(Br)cc(C(F)(F)F)c1)(C1CCC1)C(C#N)=C(N)O2 (stereo not drawn) [Compound 2.233] |  | < 10
Cc1n[nH]c2c1C(c1cc(Cl)cc(Oc3cccc(C(F)(F)F)c3)c1)(C1CCC1)C(C#N)=C(N)O2 (stereo not drawn) [Compound 2.234] |  | < 10
Cc1n[nH]c2c1C(c1cc(Cl)cc(Oc3ccccc3F)c1)(C1CCC1)C(C#N)=C(N)O2 (stereo not drawn) [Compound 2.235] |  | < 10
Cc1n[nH]c2c1C(c1cc(Cl)cc(Oc3ccccc3Cl)c1)(C1CCC1)C(C#N)=C(N)O2 (stereo not drawn) [Compound 2.236] |  | < 10
Cc1n[nH]c2c1C(c1cc(Cl)cc(Oc3cccc(Cl)c3)c1)(C1CCC1)C(C#N)=C(N)O2 (stereo not drawn) [Compound 2.237] |  | < 10
COc1cccc(Oc2cc(Cl)cc(C3(C4CCC4)C(C#N)=C(N)Oc4[nH]nc(C)c43)c2)c1 (stereo not drawn) [Compound 2.238] |  | < 10
Cc1cccc(Oc2cc(Cl)cc(C3(C4CCC4)C(C#N)=C(N)Oc4[nH]nc(C)c43)c2)c1 (stereo not drawn) [Compound 2.239] |  | < 100
Cc1ccc(Oc2cc(Cl)cc(C3(C4CCC4)C(C#N)=C(N)Oc4[nH]nc(C)c43)c2)cc1 (stereo not drawn) [Compound 2.240] |  | < 10
COc1c(Br)cc(C2(C3CCC3)C(C#N)=C(N)Oc3[nH]nc(C)c32)cc1Br (stereo not drawn) [Compound 2.241] |  | < 10
Cc1n[nH]c2c1C(c1cc(Cl)c(F)c(Cl)c1)(C1CCC1)C(C#N)=C(N)O2 (stereo not drawn) [Compound 2.242] |  | < 10
N#CC1=C(N)Oc2[nH]ncc2C1(c1cc(Cl)cc(Cl)c1)C1CCC1 (stereo not drawn) [Compound 2.244] |  | < 10
Cc1n[nH]c2c1C(c1ccc(Cl)c(Cl)c1)(C1(F)CC1)C(C#N)=C(N)O2 (stereo not drawn) [Compound 2.245] |  | < 10
N#CC1=C(N)Oc2[nH]ncc2C1(c1cc(Cl)cc(Br)c1)C1CCC1 (stereo not drawn) [Compound 2.248] |  | < 10
Cc1n[nH]c2c1C(c1cc(Cl)cc(-c3cccc(C(F)(F)F)c3)c1)(C1CCC1)C(C#N)=C(N)O2 (stereo not drawn) [Compound 2.249] |  | < 10
Cc1n[nH]c2c1C(c1cc(Cl)cc(-c3ccc(C(F)(F)F)cc3)c1)(C1CCC1)C(C#N)=C(N)O2 (stereo not drawn) [Compound 2.250] |  | < 10
N#CC1=C(N)Oc2[nH]ncc2C1(c1cc(Br)cc(Br)c1)C1CCC1 (stereo not drawn) [Compound 2.251] |  | < 10
N#CC1=C(N)Oc2[nH]ncc2C1(c1cc(Cl)cc(C(F)(F)F)c1)C1CCC1 (stereo not drawn) [Compound 2.252] |  | < 10
COc1ccc(C2(C3CCC3)C(C#N)=C(N)Oc3[nH]ncc32)cc1Cl (stereo not drawn) [Compound 2.253] |  | < 10
COc1ccc(C2(C3CCCC3)C(C#N)=C(N)Oc3[nH]ncc32)cc1Cl (stereo not drawn) [Compound 2.254] |  | < 10000
COc1ccc(C2(C3CCC3)C(C#N)=C(N)Oc3[nH]ncc32)cc1Br (stereo not drawn) [Compound 2.255] |  | < 10
N#CC1=C(N)Oc2[nH]ncc2C1(c1cc(Cl)cc(Cl)c1)C1CCCC1 (stereo not drawn) [Compound 2.256] |  | < 10000
Cc1n[nH]c2c1C(c1cc(F)cc(C#N)c1)(C1CCC1)C(C#N)=C(N)O2 (stereo not drawn) [Compound 2.258] |  | < 10
N#CC1=C(N)Oc2[nH]ncc2C1(c1cc(Br)cc(C(F)(F)F)c1)C1CCC1 (stereo not drawn) [Compound 2.259] |  | < 10
